Laboratory results published in patent publication US20240182945A1, “PRODUCTS FOR REGULATION OF EUKARYOTIC AND MICROBIAL CELLS GROWTH” (priority 2021, published 2024).

Key:
[1] = cited from earlier work
[2] = system: A. ursingii; assay: Growth of microbial modulator alone on antibiotic-supplemented Columbia agar; assay type: cell-based; details: Bacterial set #2; Cefepime (16 μg/mL); Columbia agar with erythrocytes 5%, 24 h at 37 C
[3] = system: bacteria of sputum from patients with lung diseases; assay: Standard antibiotic susceptibility study using the microbroth dilution method (Algorithm #3); assay type: cell-based; further: key: '+'—presence of bacterial growth, antibiotic ineffective; '−'—absence of bacterial growth, antibiotic effective
From the text: Algorithm #3—Standard antibiotic susceptibility study using the microbroth dilution method.

[4] = system: S.aureus (PP) and MM in sputum from children with pneumonia; assay: Degree of eradication of PP and MM on Columbia agar with antibiotic at concentrations achievable at the site of infection; assay type: cell-based; set-up: key to Degree of primary pathogen eradication, evaluation of ABEPP: % of primary pathogen (PP) eliminated
Description: We next tried to select antibiotics based on building a probability model. Antibiotic efficacy was evaluated based on a novel parameters: • ABEPPMM100—antibiotic concentration that is required for the elimination of 100% “complex” PP+MM. • ABEPPMM99—antibiotic concentration that is required for the elimination of 99% “complex” PP+MM.
ABEPPMM90—antibiotic concentration that is required for the elimination of 90% “complex” PP+MM.
ABEPPMM50—antibiotic concentration that is required for the elimination of 50% “complex” PP+MM.
ABEPP100—antibiotic concentration that affecting on “complex” PP+MM is required for the elimination of 100% PP.
ABEPP99—antibiotic concentration that affecting on “complex” PP+MM is required for the elimination of 99% PP.
ABEPP90—antibiotic concentration that affecting on “complex” PP+MM is required for the elimination of 90% PP.
ABEPP50—antibiotic concentration that affecting on “complex” PP+MM is required for the elimination of 50% PP.
We used sputum from children with pneumonia, with S.aureus as confirmed PP. Patient 1—child • Patient 2—child • Patient 3—child

[5] = system: P. aeruginosa; assay: Growth of primary pathogen alone on antibiotic-supplemented Columbia agar; assay type: cell-based; details: Columbia agar with erythrocytes 5%, 24 h at 37 C
Description: Four sputum samples from patients with lung infections were used. Pure bacterial culture of each microorganisms was obtained by routine microbiological methods.
In this case this antibiotic at MIC of 16 ug/mL was used in the following studies. PP alone, or Microbial Modulators (MM) alone or the original sputum were plated on the wells of 24 well plate filled with nutrient Columbia agar supplemented with erythrocytes 5% and supplemented with antibiotics taken as MIC determined against PP, but not more than 16 μg/mL and incubated 24 h at 37 C.

[6] = system: MIX—PP +BM (P. aeruginosa with microbial modulators); assay: Growth of mix PP + MM (original sputum) on antibiotic-supplemented Columbia agar; assay type: cell-based; details: Columbia agar with erythrocytes 5%, 24 h at 37 C
[7] = system: B. pumilus; assay: Growth of microbial modulator alone on antibiotic-supplemented Columbia agar; assay type: cell-based; details: Bacterial set #2; Cefepime (16 μg/mL); Columbia agar with erythrocytes 5%, 24 h at 37 C
[8] = system: R. dentocariosa; assay: as above; assay type: cell-based; details: Bacterial set #2; Cefepime (16 μg/mL); Columbia agar with erythrocytes 5%, 24 h at 37 C
[9] = system: bacteria of the biosample (persisters); assay: Neutropenic mice instilled with biosample and treated with antibiotic for 72 h, microbial growth in organs and blood; assay type: in vivo; details: neutropenic C57BL/6 mice treated for 72 h, agar with 100 ug/mL of the antibiotic
Description: Next, we confirmed that antibiotics selected with proposed algorithm are effective. Adult C57BL/6 mice were rendered neutropenic by injecting cyclophosphamide subcutaneously 4 days before infection (150 mg/kg of body weight), 1 day before infection (100 mg/kg), and 1 day after infection (100 mg/kg). Mice were anesthetized with 2% isoflurane and orally instilled with biosample (stored at +4 C). Briefly, nares were blocked, and mice aspirated 50 μL of the biosample into the lungs while being held vertically for 60 s.

[10] = system: E. coli; assay: Growth of microbial modulator alone on antibiotic-supplemented Columbia agar; assay type: cell-based; details: Bacterial set #1; Meropenem (16 μg/mL); Columbia agar with erythrocytes 5%, 24 h at 37 C
[11] = system: S. anginosus; assay: as above; assay type: cell-based; details: Bacterial set #1; Meropenem (16 μg/mL); Columbia agar with erythrocytes 5%, 24 h at 37 C
[12] = system: B. sonorensis; assay: as above; assay type: cell-based; details: Bacterial set #1; Meropenem (16 μg/mL); Columbia agar with erythrocytes 5%, 24 h at 37 C
[13] = Patient 1, C0-1 h, 24 h of growth
[14] = Patient 1, C0-2 h, 24 h of growth
[15] = Patient 1, C0-3 h, 24 h of growth
[16] = Patient 1, C0-4 h, 24 h of growth
[17] = Patient 1, C0-6 h, 24 h of growth
[18] = Patient 1, C0-8 h, 24 h of growth
[19] = Patient 1, C0-12 h, 24 h of growth
[20] = Patient 1, C0-24 h, 24 h of growth
[21] = Patient 1, C2-3 h, 24 h of growth
[22] = Patient 1, C3-4 h, 24 h of growth
[23] = Patient 1, C4-6 h, 24 h of growth
[24] = Patient 1, C6-8 h, 24 h of growth
[25] = Patient 1, C8-12 h, 24 h of growth
[26] = Patient 1, C12-24 h, 24 h of growth
[27] = Patient 1, Cmax × 2, 24 h of growth
[28] = Patient 2, C0-3 h, 24 h of growth
[29] = Patient 2, C0-4 h, 24 h of growth
[30] = Patient 2, C0-6 h, 24 h of growth
[31] = Patient 2, C0-8 h, 24 h of growth
[32] = Patient 2, C0-12 h, 24 h of growth
[33] = Patient 2, C0-24 h, 24 h of growth
[34] = Patient 2, C3-4 h, 24 h of growth
[35] = Patient 2, C4-6 h, 24 h of growth
[36] = Patient 2, C6-8 h, 24 h of growth
[37] = Patient 2, C8-12 h, 24 h of growth
[38] = Patient 2, C12-24 h, 24 h of growth
[39] = Patient 3, C0-3 h, 24 h of growth
[40] = Patient 3, C0-4 h, 24 h of growth
[41] = Patient 3, C0-6 h, 24 h of growth
[42] = Patient 3, C0-8 h, 24 h of growth
[43] = Patient 3, C0-12 h, 24 h of growth
[44] = Patient 3, C0-24 h, 24 h of growth
[45] = Patient 3, C3-4 h, 24 h of growth
[46] = Patient 3, C4-6 h, 24 h of growth
[47] = Patient 3, C6-8 h, 24 h of growth
[48] = Patient 3, C8-12 h, 24 h of growth
[49] = Patient 3, C12-24 h, 24 h of growth
[50] = Bacterial set #2, Cefepime (16 μg/mL)
[51] = Bacterial set #1, Meropenem (16 μg/mL)

CO/N=C(\C(=O)N[C@@H]1C(=O)N2C(C(=O)[O-])=C(C[N+]3(C)CCCC3)CS[C@H]12)c1csc(N)n1 [Cefepime]
50: Degree of primary pathogen eradication, evaluation of ABEPP [4, 18] | Degree of primary pathogen eradication, evaluation of ABEPPMM [4, 18] | Degree of primary pathogen eradication, evaluation of ABEPP [4, 25] | Degree of primary pathogen eradication, evaluation of ABEPP [4, 29] | Degree of primary pathogen eradication, evaluation of ABEPPMM [4, 29] | Degree of primary pathogen eradication, evaluation of ABEPP [4, 30] | Degree of primary pathogen eradication, evaluation of ABEPPMM [4, 30] | Degree of primary pathogen eradication, evaluation of ABEPP [4, 31] | Degree of primary pathogen eradication, evaluation of ABEPPMM [4, 31] | Degree of primary pathogen eradication, evaluation of ABEPP [4, 32] | Degree of primary pathogen eradication, evaluation of ABEPPMM [4, 32] | Degree of primary pathogen eradication, evaluation of ABEPP [4, 34] | Degree of primary pathogen eradication, evaluation of ABEPPMM [4, 34] | Degree of primary pathogen eradication, evaluation of ABEPP [4, 35] | Degree of primary pathogen eradication, evaluation of ABEPPMM [4, 35] | Degree of primary pathogen eradication, evaluation of ABEPP [4, 36] | Degree of primary pathogen eradication, evaluation of ABEPPMM [4, 36] | Degree of primary pathogen eradication, evaluation of ABEPP [4, 37] | Degree of primary pathogen eradication, evaluation of ABEPPMM [4, 37]
2/8: Number of animals with positive microbial growth on the agar with antibiotics/total number of animals per group ([9]; Liver)
4/8: Number of animals with positive microbial growth on the agar with antibiotics/total number of animals per group ([9]; Blood)
90: Degree of primary pathogen eradication, evaluation of ABEPP [4, 28] | Degree of primary pathogen eradication, evaluation of ABEPPMM [4, 28] | Degree of primary pathogen eradication, evaluation of ABEPP [4, 39] | Degree of primary pathogen eradication, evaluation of ABEPPMM [4, 39] | Degree of primary pathogen eradication, evaluation of ABEPP [4, 40] | Degree of primary pathogen eradication, evaluation of ABEPPMM [4, 40] | Degree of primary pathogen eradication, evaluation of ABEPP [4, 41] | Degree of primary pathogen eradication, evaluation of ABEPPMM [4, 41] | Degree of primary pathogen eradication, evaluation of ABEPP [4, 45] | Degree of primary pathogen eradication, evaluation of ABEPPMM [4, 45] | Degree of primary pathogen eradication, evaluation of ABEPP [4, 46] | Degree of primary pathogen eradication, evaluation of ABEPPMM [4, 46]
8 µg/mL: lung concentration after 12 h of administration ([1]; 12 h)
−: microbial growth, MIX (PP + MM) [6, 50] | microbial growth, RD (BM alone) [8]
00: Degree of primary pathogen eradication, evaluation of ABEPP [4, 19] | Degree of primary pathogen eradication, evaluation of ABEPPMM [4, 19] | Degree of primary pathogen eradication, evaluation of ABEPPMM [4, 25] | Degree of primary pathogen eradication, evaluation of ABEPP [4, 26] | Degree of primary pathogen eradication, evaluation of ABEPPMM [4, 26]
+: microbial growth, AU (BM alone) [2] | ATB efficacy [3] | microbial growth, PA (PP alone) [5, 50] | microbial growth, BP (BM alone) [7]
100: Degree of primary pathogen eradication, evaluation of ABEPP [4, 13] | Degree of primary pathogen eradication, evaluation of ABEPPMM [4, 13] | Degree of primary pathogen eradication, evaluation of ABEPP [4, 14] | Degree of primary pathogen eradication, evaluation of ABEPPMM [4, 14] | Degree of primary pathogen eradication, evaluation of ABEPP [4, 15] | Degree of primary pathogen eradication, evaluation of ABEPPMM [4, 15] | Degree of primary pathogen eradication, evaluation of ABEPP [4, 16] | Degree of primary pathogen eradication, evaluation of ABEPPMM [4, 16] | Degree of primary pathogen eradication, evaluation of ABEPP [4, 17] | Degree of primary pathogen eradication, evaluation of ABEPPMM [4, 17] | Degree of primary pathogen eradication, evaluation of ABEPP [4, 21] | Degree of primary pathogen eradication, evaluation of ABEPPMM [4, 21] | Degree of primary pathogen eradication, evaluation of ABEPP [4, 22] | Degree of primary pathogen eradication, evaluation of ABEPPMM [4, 22] | Degree of primary pathogen eradication, evaluation of ABEPP [4, 23] | Degree of primary pathogen eradication, evaluation of ABEPPMM [4, 23] | Degree of primary pathogen eradication, evaluation of ABEPP [4, 24] | Degree of primary pathogen eradication, evaluation of ABEPPMM [4, 24] | Degree of primary pathogen eradication, evaluation of ABEPP [4, 27] | Degree of primary pathogen eradication, evaluation of ABEPPMM [4, 27]
3/8: Number of animals with positive microbial growth on the agar with antibiotics/total number of animals per group ([9]; Lungs)
23 µg/mL: lung concentration after 8 h of administration ([1]; 8 h)
0: Degree of primary pathogen eradication, evaluation of ABEPP [4, 20] | Degree of primary pathogen eradication, evaluation of ABEPPMM [4, 20] | Degree of primary pathogen eradication, evaluation of ABEPP [4, 33] | Degree of primary pathogen eradication, evaluation of ABEPPMM [4, 33] | Degree of primary pathogen eradication, evaluation of ABEPP [4, 38] | Degree of primary pathogen eradication, evaluation of ABEPPMM [4, 38] | Degree of primary pathogen eradication, evaluation of ABEPP [4, 42] | Degree of primary pathogen eradication, evaluation of ABEPPMM [4, 42] | Degree of primary pathogen eradication, evaluation of ABEPP [4, 43] | Degree of primary pathogen eradication, evaluation of ABEPPMM [4, 43] | Degree of primary pathogen eradication, evaluation of ABEPP [4, 44] | Degree of primary pathogen eradication, evaluation of ABEPPMM [4, 44] | Degree of primary pathogen eradication, evaluation of ABEPP [4, 47] | Degree of primary pathogen eradication, evaluation of ABEPPMM [4, 47] | Degree of primary pathogen eradication, evaluation of ABEPP [4, 48] | Degree of primary pathogen eradication, evaluation of ABEPPMM [4, 48] | Degree of primary pathogen eradication, evaluation of ABEPP [4, 49] | Degree of primary pathogen eradication, evaluation of ABEPPMM [4, 49]

C[C@@H](O)[C@H]1C(=O)N2C(C(=O)O)=C(S[C@@H]3CN[C@H](C(=O)N(C)C)C3)[C@H](C)[C@H]12 [Meropenem]
+: microbial growth, EC (BM alone) [10] | microbial growth, PA (PP alone) [5, 51]
−: microbial growth, SA (BM alone) [11] | microbial growth, MIX (PP + MM) [6, 51] | microbial growth, BS (BM alone) [12]
